A short description of the series: gradient 5% acetonitrile 3 min, to 50% in 2 min, to 85% in 15 min, held 3 min, 100 µL/min. Particulars: column: Zorbax Extend-C18 2.1 x 50 mm; eluents: water / acetonitrile, 0.1% formic acid. Put shortly: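 Each retention time is based on an adduct peak selected computationally and verified by manual inspection. Measurements used HPLC–quadrupole time-of-flight mass spectrometry in positive and negative ionization mode on mixtures of ~100 pure standards. Chromatography ran on a Zorbax Extend-C18 column (2.1 × 50 mm, 1.8 μm) at 100 μL/min with water and acetonitrile, each containing 0.1% formic acid, and dead and dwell volumes of 40 μL and 900 μL.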
Regarding `CN(CC1CCOC1)C(=O)Cc1ccc(Cl)cc1` (centres undefined), the RP-LC retention time worked out at 741 s.

Take `CCN(CC)S(=O)(=O)c1ccc2c(c1)CC(C(=O)NCCC1=CCCCC1)N2C(C)=O` (centres undefined): the RP-LC retention time was found to be 921 s.

With `Cc1cc(C)cc(Nc2c(-c3cc(Br)ccc3O)nc3ncccn23)c1`, the RP-LC retention time was 1140 s.

Consider `Cc1nc(C)c(C(=O)Nc2nc(-c3ccc(OC(C)C)cc3)cs2)s1`, for which the RP-LC retention time is 1020 s.

On to `CCc1ccc(CNC(=O)Cc2nnc(-c3cnccn3)o2)cc1`, for which the RP-LC retention time was determined as 739 s.

The molecule `c1ccc(-c2nc(CC3CCNC3)no2)cc1` (centres undefined) registered an RP-LC retention time of 608 s.

`COCC(=O)N1CCc2c(c(-c3nnc(-c4ccccc4Cl)o3)nn2C)C1` gave an RP-LC retention time of 689 s.

As to `CC(=O)c1sc(NC(=O)c2cc(Cl)sc2Cl)nc1-c1ccccc1`, the RP-LC retention time amounted to 1080 s.

As for `COc1ccc(Cc2nc3nccc(-c4ccccn4)n3n2)cc1`, the RP-LC retention time came out at 768 s.

Molecule `Cc1ccc(C)c(-c2cc3c4nn(CC(=O)NC(C)C)c(=O)n4ccn3n2)c1` came in with an RP-LC retention time of 856 s.

Consider `CCCNC(=O)C1CCCN(c2ccc(SCC(=O)Nc3ccc(C)c(F)c3)nn2)C1` (centres undefined), for which the RP-LC retention time was found to be 718 s.

In turn, `Cc1sc(-c2noc(C3CC3)n2)cc1S(=O)(=O)N1CCC(C(=O)NC2CCC(C)CC2)CC1` (centres undefined) gave an RP-LC retention time of 1120 s.

Molecule `O=C1C2N=NN(Cc3nc(-c4ccccc4)no3)C2C(=O)N1c1ccccc1` (centres undefined) gave an RP-LC retention time of 906 s.

As to `COc1cc(Cl)ccc1C(=O)N1CCCC1c1nc(-c2ccccc2)no1` (centres undefined), the RP-LC retention time stood at 1070 s.

As for `CCOCCCNC(=O)c1c2c(cn(-c3ccc(F)cc3)c1=O)C(=O)CC(C)(C)C2`, the RP-LC retention time was 859 s.

Take `O=C(Cn1ccn2nc(-c3ccccc3)c(CO)c2c1=O)N1CCCc2ccccc21`: the RP-LC retention time is 861 s.

In turn, `COc1ccc(C2(C(=O)N3CCCC(c4nc(C5CCOCC5)no4)C3)CC2)cc1` (centres undefined) yielded an RP-LC retention time of 822 s.

On to `Fc1ccc(-c2nnc(Cc3nc(-c4cccnc4)no3)o2)cc1`, for which the RP-LC retention time was found to be 747 s.

For `CCOCCn1c(=O)c2c(nc3n2CCCCN3c2ccc(OCC)cc2)n(C)c1=O`, the RP-LC retention time turned out to be 906 s.

As to `Cc1cc(C)c2c(N3CCOCC3)nc(C(=O)NCC3CCCCC3)nc2n1`, the RP-LC retention time was 678 s.

`Cc1ccc(-c2noc(CSc3nc4cc5c(cc4c(=O)n3-c3ccc(F)cc3)OCO5)n2)cc1` displayed an RP-LC retention time of 1200 s.

For the molecule `CC(C)Cn1nc(CNC(=O)c2ccccn2)c2ccccc21`, the RP-LC retention time turned out to be 923 s.

Molecule `COc1cccc2cc(C(=O)N(CCc3cccs3)Cc3cccnc3)oc12` returned an RP-LC retention time of 671 s.

In turn, `Cc1ccccc1CN1C[C@@H]2C(=O)N(C)C(=O)[C@@H]2C1` showed an RP-LC retention time of 585 s.

For the molecule `CC1CCN(c2cc(-c3noc(C(=O)NCCC4=CCCCC4)n3)ccn2)CC1`, the RP-LC retention time amounted to 1100 s.

For the molecule `CCS(=O)(=O)Nc1cc(-c2nnc(C(C)C)o2)sc1C`, the RP-LC retention time was determined as 863 s.

The molecule `Cn1ncc(NC(=O)c2ccc(Br)cc2)c(N2CCOCC2)c1=O` showed an RP-LC retention time of 814 s.

On to `O=c1c2cc(-c3ccc(F)cc3)nn2ccn1Cc1ccccc1Cl`, for which the RP-LC retention time was 1120 s.

As to `CCc1ccccc1NC(=O)N1CCCC1c1nc(-c2ccc(F)cc2F)no1` (centres undefined), the RP-LC retention time is 987 s.

`COC(=O)c1ccc2c(=O)n(-c3ccc(Cl)cc3)c(N3CCN(c4ccccn4)CC3)nc2c1`: the RP-LC retention time was found to be 753 s.

As for `COc1ccc(CN2CC(C(=O)NC3(c4nc(C)no4)CCCCC3)CC2=O)cc1` (centres undefined), the RP-LC retention time was found to be 706 s.

In turn, `CCc1ccc(NC(=O)C2CCCN(c3nc4c(s3)c(C)nn4-c3ccc(OC)cc3)C2)cc1` (centres undefined) gave an RP-LC retention time of 1360 s.

`CCn1cc(-c2nc(C(=O)Nc3ccccc3F)cs2)c2cccnc21` came in with an RP-LC retention time of 1130 s.

As to `Cc1cccc2c(=O)n(C3CCN(C(=O)Nc4ccc5c(c4)OCCO5)CC3)cnc12`, the RP-LC retention time came out at 766 s.

Take `CN(C)c1ccc(C(CNC(=O)COc2ccc(Cl)cc2)N(C)C)cc1` (centres undefined): the RP-LC retention time was found to be 683 s.

The molecule `O=C(Cn1cccc1-c1nc(-c2ccc3c(c2)OCO3)no1)Nc1ccc2c(c1)OCCO2` displayed an RP-LC retention time of 963 s.

The molecule `O=C(NC1CCCCC1)C1CCCN(C(=O)c2cc(-c3ccccn3)n[nH]2)C1` (centres undefined) showed an RP-LC retention time of 659 s.

`COc1ccc(-n2ccn3cc(-c4ccc(F)cc4F)nc3c2=O)cc1Cl` gave an RP-LC retention time of 929 s.

In turn, `CCc1cc(C(c2cccc(F)c2)N2CCN(C)CC2)c(NC(=O)c2ccccc2)s1` (centres undefined) had an RP-LC retention time of 622 s.

In turn, `CCn1cc(-c2ccc(Cl)cc2)cc1C(=O)NCCCN1CCCC1=O` showed an RP-LC retention time of 879 s.

For the molecule `Cc1csc(-c2ccc(N3CCN(C(=O)c4nccc5ccccc45)CC3)nc2)n1`, the RP-LC retention time turned out to be 829 s.

Consider `CC(=O)N1c2ccc(S(=O)(=O)N3CCCCC3)cc2CC1C(=O)NCCC(C)C` (centres undefined), for which the RP-LC retention time is 822 s.

With `O=C(Nc1ccc(Br)cc1F)C1CCCN(c2ccc(=O)n(-c3cccc(F)c3)n2)C1` (centres undefined), the RP-LC retention time is 1020 s.

The molecule `Cc1nc(-c2cn(C)c3ncccc23)sc1C(=O)Nc1ccc(F)cc1Cl` displayed an RP-LC retention time of 1050 s.

On to `Cc1ccc(S(=O)(=O)N2CCCCC2)cc1-c1nnc(-c2ccccc2)o1`, for which the RP-LC retention time was 1130 s.

Regarding `C[C@H]1CN(C(=O)NCc2ccccc2)C[C@@H]1c1nc(-c2cccnc2)no1`, the RP-LC retention time stood at 730 s.

`CCn1cnc(S(=O)(=O)N2CCCC(C(=O)Nc3ccccc3F)C2)c1` (centres undefined) returned an RP-LC retention time of 735 s.

As for `N#Cc1ccsc1NC(=O)c1ccc2ncsc2c1`, the RP-LC retention time worked out at 725 s.

As for `Cc1cccc(Sc2nccnc2SCC(=O)N2CCN(c3ccccn3)CC2)c1`, the RP-LC retention time was found to be 721 s.

On to `COc1cc(OC)c(NS(=O)(=O)c2cc(-c3c(C)noc3NC(C)=O)ccc2C)cc1Cl`, for which the RP-LC retention time came out at 813 s.

On to `Cc1ccc(C(=O)N2CC[C@H](CO)[C@H](N(C)C)C2)s1`, for which the RP-LC retention time was 577 s.

Consider `CCc1nc2cc(-c3noc(Cc4c[nH]c5ccccc45)n3)ccc2o1`, for which the RP-LC retention time came to 1020 s.

Regarding `O=C(Nc1ccc2c(c1)OCCO2)N1C[C@@H]2CN(S(=O)(=O)c3ccccc3)C[C@H](C1)O2`, the RP-LC retention time turned out to be 728 s.

`CN1CCN(Cc2nc3cc(NC(=O)C4CCCCC4)ccc3n2C)CC1` registered an RP-LC retention time of 574 s.

Take `Cc1nc2cc3c(cc2n1CC(=O)NCCc1ccc(F)cc1)OCCO3`: the RP-LC retention time was 646 s.

Regarding `CS(=O)(=O)N1CCCC(C(=O)NCCC2=CCCCC2)CCNC(=O)CC1` (centres undefined), the RP-LC retention time turned out to be 690 s.

Turning to `CC1CCN(c2ncc3c(n2)CCC(C(=O)NCc2ccc(N4CCOCC4)cc2)C3)CC1` (centres undefined), the RP-LC retention time was 715 s.

In turn, `COc1ccc(-c2nc(N3CCCC3)c3ccccc3n2)cc1` had an RP-LC retention time of 742 s.

The molecule `Cc1nn(C(C)C(=O)NCCCN2CCN(C)CC2)c(=O)c2c(C)n(-c3ccccc3)nc12` (centres undefined) registered an RP-LC retention time of 592 s.

Turning to `CCCOc1ccc(Nc2nc(C(=O)OCC)nc3ccccc23)cc1`, the RP-LC retention time was determined as 941 s.

With `Cc1ccc(C(=O)NC2CCN(c3cc(-c4ccc(Cl)cc4)[nH]n3)C2)cc1` (centres undefined), the RP-LC retention time came to 821 s.

For `CCn1c(C(=O)NC(C)CCc2ccccc2)cc2sc(Cl)cc21` (centres undefined), the RP-LC retention time turned out to be 1270 s.

With `COc1ccc(NC(=O)c2cc3c(s2)CN(C2CCCC2)C3)c(C)c1`, the RP-LC retention time came out at 614 s.

`O=C(c1ccco1)N1CCN(c2ccc(-c3noc(C4CCC4)n3)cc2)CC1` displayed an RP-LC retention time of 990 s.

The molecule `Cc1nn(-c2ccc(-c3ccccc3)nn2)c(C)c1S(=O)(=O)NCc1ccc2c(c1)OCO2` displayed an RP-LC retention time of 978 s.

On to `CCNC(=O)Nc1ccc2c(c1)CN(S(=O)(=O)Cc1ccccc1)CCO2`, for which the RP-LC retention time was determined as 754 s.

The molecule `CN1Cc2sccc2C(c2ccc(O)c(O)c2)C1` (centres undefined) returned an RP-LC retention time of 628 s.

Molecule `Cn1nccc1C(=O)N1CCN(c2cc(=O)n(C)c(=O)n2C)CC1` had an RP-LC retention time of 587 s.

Turning to `O=C1NCCOCCN(C(=O)c2nccc3ccccc23)[C@H]2CCC[C@@H]12`, the RP-LC retention time came to 674 s.

`CC(C)CC(NC(=O)[C@H]1CCCN1C(=O)OCc1ccccc1)C(=O)NCC(=O)NO` (some centres undefined) yielded an RP-LC retention time of 648 s.

On to `Cn1cncc1C(=O)N1CC(F)(F)C[C@H]1c1nc(C2CC2)no1`, for which the RP-LC retention time came to 620 s.

Molecule `CCN1C(=O)c2cccnc2Sc2cc(NC(=O)Cc3cccc(F)c3)ccc21` displayed an RP-LC retention time of 826 s.

In the case of `O=C([C@@H]1C[C@H](F)CN1S(=O)(=O)c1ccc(F)cc1)N1CCCCC1`, the RP-LC retention time was determined as 784 s.

As to `CCC(=O)N1CCc2cc(C)c(S(=O)(=O)NC3CC3)cc21`, the RP-LC retention time stood at 767 s.

As to `O=C(Nc1ccc(F)c(Cl)c1)c1cccn1Cc1noc(C2CC2)n1`, the RP-LC retention time came to 998 s.

In turn, `CCc1nc2cc(N3CCCC(C(=O)NC(C)c4cccnc4)C3)cnc2nc1CC` (centres undefined) showed an RP-LC retention time of 606 s.

As for `O=S(=O)(Cc1ccccc1)N1CCC(OCCOc2cccnc2)CC1`, the RP-LC retention time stood at 665 s.

Molecule `O=C(C1CCN(S(=O)(=O)c2ccc(-c3noc(CCC4CCCC4)n3)cc2)CC1)N1CCCC1` showed an RP-LC retention time of 1190 s.

Take `CC(C)CN1C(=O)c2cccn2CC1C(=O)NCCN1CCCC1` (centres undefined): the RP-LC retention time was 572 s.

Values taken from the METLIN SMRT retention time set (Domingo-Almenara et al. 2019).
